Laboratory results published in paper PMC3988166 (PLoS ONE, 2014).
Read-outs that look alike come from different tables or passages of the source.

T1: Recombinant human ASGPR (Homo sapiens, UniProt P07306)
T1 construct: purchased Sino Biological Inc. (Beijing, China)
T1 sequence (P07306 62-291 limits assumed): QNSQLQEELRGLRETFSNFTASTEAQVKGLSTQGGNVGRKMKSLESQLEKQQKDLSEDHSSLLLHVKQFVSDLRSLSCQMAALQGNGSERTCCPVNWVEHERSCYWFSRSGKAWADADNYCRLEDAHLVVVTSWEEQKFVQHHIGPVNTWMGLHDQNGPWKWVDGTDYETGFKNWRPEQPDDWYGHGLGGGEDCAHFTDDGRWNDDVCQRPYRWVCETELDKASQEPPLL


Assays:
Recombinant human ASGPR = biological target: T1, Recombinant human ASGPR; experiment: biochemical; format: binding
Experimental: SPR experiments were performed on a Biacore T100 (GE Healthcare, Little Chalfont, UK) at 25°C. Recombinant human ASGPR (the subunit of ASGPR that contains the carbohydrate binding site) used was from Sino Biological Inc. (Beijing, China). The receptor was immobilized onto a series S sensor chip CM5 (GE Healthcare, Little Chalfont, UK) using the N-hydroxysuccinimide (NHS) capture kit (GE Healthcare, Little Chalfont, UK).
Recombinant human ASGPR was immobilized onto a series S sensor chip CM5 using the NHS capture kit, where ASGPR was covalently linked to the surface of the chip via free amine groups. Compounds were tested at 10–1000 µM concentrations using multi-cycle kinetics with at least three experiments performed for each interaction. Single cycle kinetics was applied to optimize concentrations prior to completion of multi-cycle kinetics as described by Dumont et al.. […] The running buffer for all SPR experiments was 20 mM HEPES, pH 7.4, 150 mM NaCl, 5 mM CaCl2, and 0.005% TWEEN 20.

Plasma stability assay = format: in vitro ADME; conditions: human, after incubation at 37°C for 120 min, read-out: % remained in human plasma
Experimental: Blood sample collection from a healthy and consenting human adult for this study was approved by and conducted according to the guidelines set by The University of Queensland Medical Research Ethics Committee (approval number: 2009000661). Written consent was obtained prior to the collection of blood samples. Plasma was isolated from fresh-heparin treated blood by centrifugation at 660×g for 15 min. […] Compounds (300 µL) were mixed with 300 µL of the plasma, pre-warmed at 37°C and incubated at 37°C. Samples (50 µL) were collected at predetermined time points (0, 5, 10, 20, 30, 40, 60, 90 and 120 min), and added into 75 µL ACN to precipitate the plasma proteins. Samples were then centrifuged at 7300×g for 10 min.

[1] = Caco-2 cell permeability assay in the presence of phloretin (inhibitor for GLUT2); format: in vitro ADME, human; conditions: Caco-2 cell monolayer, 200 µM compound + 100 µM phloretin, n = 3; read-out: P app, Phloretin
Experimental: (§1) Permeability experiments (as described above) were conducted to investigate whether the compounds used the sugar transporters SGLT1 or GLUT2 for their transport across cell membranes. Samples containing 200 µM test compound and 100 µM phlorizin (inhibitor for SGLT1) or 100 µM phloretin (inhibitor for GLUT2) in HBSS-HEPES buffer were added to the apical chamber. […] P app values for each compound were then calculated as above.

[2] = Caco-2 cell permeability assay in the presence of phlorizin (inhibitor for SGLT1); format: in vitro ADME, human; conditions: Caco-2 cell monolayer, 200 µM compound + 100 µM phlorizin, n = 3; read-out: P app, Phlorizin
Experimental: as §1

[3] = Caco-2 cell permeability assay; conditions: Caco-2; for Papp A→B at 150 min, 200 µM: human
Experimental: (§2) Human colorectal adenocarcinoma cells (Caco-2 cells) were obtained from the American Type Culture Collection, Rockville, USA. A Branson Sonifier 250 (Branson Ultrasonics, Danbury, USA) was used to lyse the cells for stability experiments. Protein content was measured using the BioRad protein assay kit (BioRad, Hercules, USA). TPP 96-well plates for stability assays were purchased from Sigma Aldrich (Castle Hill, Australia). For permeability studies Caco-2 cell monolayers were grown in 24 well plates with Transwell polycarbonate cell culture inserts (pore size 0.4 µm, diameter 6.5 mm) from Corning Incorporated (New York, USA). A Millicell-ERS epithelial Transep volt-ohmmeter system (EMD Millipore Corporation, Billerica, USA) was used to measure the transepithelial electrical resistance (TEER) values of the cells. Scintillation counting was carried out using Liquid Scintillation Systems from Beckman Coulter (Brea, USA).
(§3) A cell suspension of Caco-2 cells in the cell culture medium was adjusted to a cell density of 1×10^6 cells/mL before being aliquoted (100 µL) into Transwell polycarbonate cell culture inserts in a 24-well plate, while 600 µL of media was added to the basolateral chamber. The culture medium was changed every other day for 21–28 days. TEER values were measured before and after the assay, to determine the integrity of tight junctions of the cell monolayers. […] Cell monolayers were washed with pre-warmed HBSS–HEPES and incubated for 30 min at 37°C. Test compounds and the control propanolol, were prepared in HBSS–HEPES buffer to a final concentration of 200 µM. After incubation, buffer in the apical chamber was removed and replaced with 100 µL aliquots of each of the test compounds. […] The concentration of the peptide in the collected samples was determined using LC-MS analysis as described for the stability assay above. Radioactivity of the [^14C]-D-mannitol samples was quantified by liquid scintillation counting (Liquid Scintillation Systems).
(§4) The apparent permeability (Papp, cm/s) of each compound was calculated using the following equation: [drawing 1]
(§5) Where dC/dt is the steady-state rate of change in the test item concentration (M/s) or radiochemical concentration (dpm mL/s) in the receiver chamber, Vr is the volume of the receiver chamber (mL), A is the surface area of the cell monolayers and C0 is the initial concentration in the donor chamber (M or dpm/mL).
(§6) The average Papp values (±S.D.) from three replicates is presented.

Caco-2 cell monolayers = experiment: Caco-2 cell permeability assay
Experimental: as §2, §3, §4, §5, §6

[4] = biological target: Leu-enkephalin (Homo sapiens); experiment: SPR
Gal-Enk (Homo sapiens) = experiment: SPR
[5] = biological target: Gal-Lac-Enk (Homo sapiens); experiment: SPR
Lac-Enk (Homo sapiens) = experiment: SPR

Row | Molecule | Papp A→B [1] [×10⁻⁶ cm/s] | koff (Recombinant human ASGPR) [s⁻¹] | kon (Recombinant human ASGPR) [M⁻¹ s⁻¹] | Kd (Recombinant human ASGPR; KD) [µM] | Papp A→B [2] [×10⁻⁶ cm/s] | Papp A→B at 150 min, 200 µM [3] [×10⁻⁶ cm/s] | further results
1 | OC[C@H]1O[C@@H](O[C@H]2[C@H](O)[C@@H](O)[C@H](O)O[C@@H]2CO)[C@H](O)[C@@H](O)[C@H]1O [D-Lactose, reference compound] | – | – | – | – | – | – | Kd (Recombinant human ASGPR; SPR, immobilized ASGPR, 25°C, read-out: KD): 19.2 ± 3.28 µM
2 | CC(C)C[C@H](NC(=O)[C@H](Cc1ccccc1)NC(=O)CNC(=O)CNC(=O)[C@H](Cc1ccc(O)cc1)NC(=O)CCC(=O)N[C@@H]1O[C@H](CO)[C@H](O)[C@H](O)[C@H]1O)C(N)=O [Gal-Enk, N^1-Leu-enkephalin-N^4-(β-D-galactopyranosyl)succinamide] | 1.58 ± 0.723 | 0.072 ± 0.025 | 328 ± 84.8 | 219 ± 164 | 1.18 ± 0.276 | 0.798 ± 0.203 | remaining at 2 h, 0.5 mg/mL (Plasma stability assay): ~60%
3 | CC(C)C[C@H](NC(=O)[C@H](Cc1ccccc1)NC(=O)CNC(=O)CNC(=O)[C@H](Cc1ccc(O)cc1)NC(=O)CCC(=O)N[C@@H]1O[C@H](CO)[C@@H](O[C@@H]2O[C@H](CO)[C@H](O[C@H]3O[C@H](CO)[C@H](O)[C@H](O)[C@H]3O)[C@H](O)[C@H]2O)[C@H](O)[C@H]1O)C(N)=O [Gal-Lac-Enk, N^1-Leu-enkephalin-N^4-(α-D-galactopyranosyl-(1→4)-β-D-galactopyranosyl-(1→4)-β-D-glucopyranosyl)succinamide] | 0.712 ± 0.137 | 0.0041 ± 0.003 | 45 ± 28.9 | 91.1 ± 22.1 | 0.561 ± 0.137 | 0.44 ± 0.163 | remaining at 2 h (Plasma stability assay; plasma): ~100%; increase in binding affinity compared to the peptide alone (Recombinant human ASGPR): two-fold
4 | CC(C)C[C@H](NC(=O)[C@H](Cc1ccccc1)NC(=O)CNC(=O)CNC(=O)[C@H](Cc1ccc(O)cc1)NC(=O)CCC(=O)N[C@@H]1O[C@H](CO)[C@@H](O[C@@H]2O[C@H](CO)[C@H](O)[C@H](O)[C@H]2O)[C@H](O)[C@H]1O)C(N)=O [Lac-Enk, N^1-Leu-enkephalin-N^4-(β-D-galactopyranosyl-(1→4)-β-D-glucopyranosyl)succinamide] | 0.921 ± 0.084 | 0.0086 ± 0.002 | 40.7 ± 6.3 | 211 ± 70.9 | 0.711 ± 0.145 | – | remaining at 2 h, 0.5 mg/mL (Plasma stability assay): ~70%; P app, Control (compound only) (Caco-2 cell monolayers; Caco-2 cell monolayer, 200 µM, n = 3): 17.20±12.40 ×10^−7 cm/s; Papp A→B [3]: 1.72 ×10⁻⁶ cm/s
5 | OC[C@@H](O)[C@@H](O)[C@H](O)[C@H](O)CO [^14C mannitol, [^14C]-D-mannitol, reference compound] | – | – | – | – | – | – | apparent permeability (Papp) (Caco-2 cell monolayers; Caco-2 monolayers, apical to basolateral, compound only, values in text): 4.4×10^−9 (±3.86) cm/s
6 | CC(C)NCC(O)COc1cccc2ccccc12 (stereo not drawn) [propanolol, reference compound] | – | – | – | – | – | 134 | –
7 | Asialoglycoprotein receptor (ASGPR, carbohydrate-binding subunit), P07306 (protein) MTKEYQDLQHLDNEESDHHQLRKGPPPPQPLLQRLCSGPRLLLLSLGLSLLLLVVVCVIGSQNSQLQEELRGLRETFSNFTASTEAQVKGLSTQGGNVGRKMKSLESQLEKQQKDLSEDHSSLLLHVKQFVSDLRSLSCQMAALQGNGSERTCCPVNWVEHERSCYWFSRSGKAWADADNYCRLEDAHLVVVTSWEEQKFVQHHIGPVNTWMGLHDQNGPWKWVDGTDYETGFKNWRPEQPDDWYGHGLGGGEDCAHFTDDGRWNDDVCQRPYRWVCETELDKASQEPPLL | – | – | – | – | – | – | Kd [4]: 277 µM; Kd (Gal-Enk (Homo sapiens)): 219 µM; Kd [5]: 91.1 µM; Kd (Lac-Enk (Homo sapiens)): 211 µM
